We go through 11 compounds from patent US9567345B2, “Pharmaceutically active pyrazolo-triazine derivatives” (LEAD DISCOVERY CENTER GMBH, priority 2012, dated 2017).

Read-outs that look alike come from different tables or passages of the source.

Experiment [1] deals with CDK7/CycH/Mat1 (Homo sapiens, UniProt P50613). In words: CDK7 Enzymatic Activity Assay (Lance Kinase Activity Assay, FRET). The format is biochemical. As for the experimental part:
(§1) This protocol describes how the Lance Kinase Activity Assay was performed to determine IC50 values of compounds of general formula (I) against CDK/Cyclin complexes. The principle behind this enzymatic assay is based upon the phosphorylation of the Ulight-Peptide Substrat. It is detected by using a specific EU-labeled anti-phospho peptide antibody.
(§2) Binding of an inhibitor to the kinase prevents phosphorylation of the Ulight-MBP Substrat, resulting in a loss of FRET.
CDK7 Enzymatic Activity Assay
(§3) The compounds of general formula (I) exemplary summarized in Table 1 were diluted from a 10 mM DMSO stock solution 1:10 in a total volume of 15 μl DMSO. This compound predilution was then serial diluted 1:3 over 8 steps in DMSO and briefly spun down. Each compound solution was now diluted 1:20 in Enzymatic Buffer (HEPES: 50 mM, pH: 7.5; MgCl2: 10 mM; EGTA: 1 mM; DTT: 2 mM; Tween-20: 0.01%), mixed thoroughly and spun down.
(§4) For positive controls, 2 μl of DMSO working solution were mixed with 6 μl CDK7/CycH/Mat1/substrate working solution and 2 μl ATP working solution. Positive and negative controls were calculated from at least 8 different wells. The 384 well plates were mixed in a Teleshaker plate mixer (Beckman Coulter, Brea, Calif., USA) at 2000 rpm for 40 sec, and incubated for 1 h at room temperature before addition of 10 μl LANCE Detection Buffer (1×; EDTA: […]; Eu-Anti-P-MBP: 4 nM) per well. Plates were mixed in a Teleshaker plate mixer (Beckman Coulter, Brea, Calif., USA) at 2000 rpm for 40 sec, followed by incubation with Detection Buffer for 1 h, and reading. […] IC50 values were determined from the sigmoidal dose response curves with the software Quattro Workflow (Quattro GmbH, Munich, Germany).

The target in experiment [2] is CDK9/Cyclin T1 (Homo sapiens, UniProt P50750). In words: CDK9 Enzymatic Activity Assay (Lance Kinase Activity Assay, FRET). The format is biochemical. The note with it: for IC50: Table 5B, class symbols per IC50 [nM] ranges of b581, read-out: CDK9: Selectivity of CDK7 inhibition over CDK9 inhibition. How it is done: as §1, §2
CDK9 Enzymatic Activity Assay
as §3
as §4, with “CDK9/cyclin T1/substrate” for “CDK7/CycH/Mat1/substrate”

[3] abbreviates: CDK7/CycH/Mat1, 25 μM ATP final, class ranges, read-out: CDK7: IC50 [nM] for CDK7 inhibition.

CDK9/Cyclin T1, sequence (P50750 whole entry): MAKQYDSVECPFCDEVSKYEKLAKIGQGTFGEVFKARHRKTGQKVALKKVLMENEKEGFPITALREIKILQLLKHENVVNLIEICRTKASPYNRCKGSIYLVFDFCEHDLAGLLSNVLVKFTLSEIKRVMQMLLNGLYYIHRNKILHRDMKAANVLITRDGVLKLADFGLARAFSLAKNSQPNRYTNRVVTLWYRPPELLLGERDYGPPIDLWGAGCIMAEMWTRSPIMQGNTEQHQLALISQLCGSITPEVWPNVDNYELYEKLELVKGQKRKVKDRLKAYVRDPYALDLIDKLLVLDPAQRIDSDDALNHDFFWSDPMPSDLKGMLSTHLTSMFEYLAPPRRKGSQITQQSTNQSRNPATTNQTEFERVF
CDK9/Cyclin T1, sequence (O60563 whole entry partner): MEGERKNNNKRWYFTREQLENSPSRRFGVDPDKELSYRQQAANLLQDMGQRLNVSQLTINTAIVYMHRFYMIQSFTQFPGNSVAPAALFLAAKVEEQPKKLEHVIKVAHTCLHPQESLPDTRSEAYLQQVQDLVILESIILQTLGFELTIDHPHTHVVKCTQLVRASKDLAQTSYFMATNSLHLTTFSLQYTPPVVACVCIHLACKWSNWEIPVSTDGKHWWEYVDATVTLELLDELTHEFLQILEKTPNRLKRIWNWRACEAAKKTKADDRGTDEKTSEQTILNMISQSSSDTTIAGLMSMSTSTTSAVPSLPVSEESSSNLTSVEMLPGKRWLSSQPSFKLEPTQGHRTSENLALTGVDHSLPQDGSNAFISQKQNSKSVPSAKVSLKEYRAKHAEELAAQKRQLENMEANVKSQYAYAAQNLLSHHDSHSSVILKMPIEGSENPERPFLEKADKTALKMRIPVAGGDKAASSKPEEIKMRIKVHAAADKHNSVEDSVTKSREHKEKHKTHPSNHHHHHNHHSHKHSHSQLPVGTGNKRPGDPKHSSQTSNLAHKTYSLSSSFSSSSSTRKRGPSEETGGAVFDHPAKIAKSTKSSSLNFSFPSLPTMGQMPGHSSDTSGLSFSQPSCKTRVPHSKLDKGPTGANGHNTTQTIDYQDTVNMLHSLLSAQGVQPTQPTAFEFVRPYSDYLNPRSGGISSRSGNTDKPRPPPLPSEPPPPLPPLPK
CDK7/CycH/Mat1, sequence (P50613 whole entry): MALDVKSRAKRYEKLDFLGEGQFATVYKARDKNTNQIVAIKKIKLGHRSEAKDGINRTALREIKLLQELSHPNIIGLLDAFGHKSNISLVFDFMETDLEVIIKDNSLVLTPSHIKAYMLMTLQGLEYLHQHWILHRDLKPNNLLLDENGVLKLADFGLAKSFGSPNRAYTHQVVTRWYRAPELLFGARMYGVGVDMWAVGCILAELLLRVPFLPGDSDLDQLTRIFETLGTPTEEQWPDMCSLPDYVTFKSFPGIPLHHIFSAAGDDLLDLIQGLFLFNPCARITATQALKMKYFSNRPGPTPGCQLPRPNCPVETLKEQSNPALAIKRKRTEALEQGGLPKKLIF

`CC(C)c1cnn2c(NCc3ccccc3N3CCOCC3)nc(OC3CCN(C)CC3)nc12` [(VII-60), 8-isopropyl-2-((1-methylpiperidin-4-yl)oxy)-N-(2-morpholinobenzyl)pyrazolo[1,5-a][1,3,5]triazin-4-amine]: the IC50 in experiment [1] (setting [3]) was more than 25 nM; in experiment [2], more than 2500 nM.
For `Cc1cccc(Cl)c1CNc1nc(OC2CCN(C)CC2)nc2c(C(C)C)cnn12` [(VII-62), N-(2-chloro-6-methylbenzyl)-8-isopropyl-2-((1-methylpiperidin-4-yl)oxy)pyrazolo[1,5-a][1,3,5]triazin-4-amine] the same measures were 10 to 25 nM and more than 2500 nM.
For `CC(C)c1cnn2c(NCc3c(Cl)cccc3Cl)nc(OC3CCN(C)CC3)nc12` [(VII-63), N-(2,6-dichlorobenzyl)-8-isopropyl-2-((1-methylpiperidin-4-yl)oxy)pyrazolo[1,5-a][1,3,5]triazin-4-amine], the IC50 in experiment [1] (setting [3]) is 10 to 25 nM; in experiment [2] it was more than 2500 nM.
Take `CC(C)c1cnn2c(NCc3c(F)cccc3F)nc(OC3CCN(C)CC3)nc12` [(VII-64), N-(2,6-difluorobenzyl)-8-isopropyl-2-((1-methylpiperidin-4-yl)oxy)pyrazolo[1,5-a][1,3,5]triazin-4-amine]: the IC50 in experiment [1] (setting [3]) was in the range of 5 to 10 nM; in experiment [2], 50 to 500 nM.
For `CC(C)Oc1ccccc1CNc1nc(OC2CCN(C)CC2)nc2c(C(C)C)cnn12` [(VII-66), N-(2-isopropoxybenzyl)-8-isopropyl-2-((1-methylpiperidin-4-yl)oxy)pyrazolo[1,5-a][1,3,5]triazin-4-amine], in that order: less than 5 nM and more than 2500 nM.
As for `COc1ccccc1[C@H](C)Nc1nc(OC2CCN(C)CC2)nc2c(C(C)C)cnn12` [(VII-67), (S)-8-isopropyl-N-(1-(2-methoxyphenyl)ethyl)-2-((1-methylpiperidin-4-yl)oxy)pyrazolo[1,5-a][1,3,5]triazin-4-amine], the IC50 in experiment [1] (setting [3]) is less than 5 nM; in experiment [2], more than 2500 nM.
Take `CC(C)c1cnn2c(N[C@@H](C)c3cccc4ccccc34)nc(OC3CCN(C)CC3)nc12` [(VII-69), (S)-8-isopropyl-2-((1-methylpiperidin-4-yl)oxy)-N-(1-(naphthalen-1-yl)ethyl)pyrazolo[1,5-a][1,3,5]triazin-4-amine]: the IC50 in experiment [1] (setting [3]) was less than 5 nM; in experiment [2], more than 2500 nM.
Turning to `CCOc1ccccc1CNc1nc(OC2CCN(C)CC2)nc2c(C(C)C)cnn12` [(VII-70), N-(2-ethoxybenzyl)-8-isopropyl-2-((1-methylpiperidin-4-yl)oxy)pyrazolo[1,5-a][1,3,5]triazin-4-amine], the IC50 in experiment [1] (setting [3]) is less than 5 nM; in experiment [1] (Table 6, read-out: IC50 CDK7), less than 5 nM; in experiment [2], more than 2500 nM. Besides, the “Selectivity CDK7 over CDK9” value in experiment [2] (Table 6) is given as 992 fold.
As to `Cc1nccn1-c1ccccc1CNc1nc(OC2CCN(C)CC2)nc2c(C(C)C)cnn12` [(VII-75), 8-isopropyl-N-(2-(2-methyl-1H-imidazol-1-yl)benzyl)-2-((1-methylpiperidin-4-yl)oxy)pyrazolo[1,5-a][1,3,5]triazin-4-amine], the IC50 was less than 5 nM in experiment [1] (setting [3]) and more than 2500 nM in experiment [2].
For `CC(C)NS(=O)(=O)c1ccccc1CNc1nc(O[C@@H]2CCCNC2)nc2c(C(C)C)cnn12` [(VII-105), (R)-N-isopropyl-2-(((8-isopropyl-2-(piperidin-3-yloxy)pyrazolo[1,5-a][1,3,5]triazin-4-yl)amino)methyl)benzenesulfonamide] the same measures were more than 25 nM and more than 2500 nM.
For `CC(C)c1cnn2c(NCc3ccccc3-n3cccn3)nc(N3CC4(CCNC4)C3)nc12` [(VIII-02), N-(2-(1H-pyrazol-1-yl)benzyl)-8-isopropyl-2-(2,6-diazaspiro[3.4]octan-2-yl)pyrazolo[1,5-a][1,3,5]triazin-4-amine], the IC50 in experiment [1] (setting [3]) was less than 5 nM; in experiment [2] it was more than 2500 nM.
